From patent US11820766B2, “Monoacylglycerol lipase modulators” (Janssen Pharmaceutica NV, priority 2018, dated 2023) come the findings set out here.

Molecules are shown by their SMILES.

The target in the first experiment is T1, human MGL from HeLa cells (Homo sapiens, UniProt Q99685).
T1 construct: combining endogenously expressed MGL from HeLa cells with test compounds; endogenous in cells; host or cells: HeLa cells / cell homogenates
T1 sequence (Q99685 1-303): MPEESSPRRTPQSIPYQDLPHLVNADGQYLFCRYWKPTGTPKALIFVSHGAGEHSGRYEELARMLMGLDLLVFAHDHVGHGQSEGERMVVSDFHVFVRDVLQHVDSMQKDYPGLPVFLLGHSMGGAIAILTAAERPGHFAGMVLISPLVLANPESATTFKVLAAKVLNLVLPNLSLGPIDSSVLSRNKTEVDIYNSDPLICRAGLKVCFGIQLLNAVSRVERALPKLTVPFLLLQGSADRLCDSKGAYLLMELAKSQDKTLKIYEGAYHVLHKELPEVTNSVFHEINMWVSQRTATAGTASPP
Description: In vitro MGL activity assay: [glycerol-1,3-3H]-oleyl glycerol cleavage by MGL from HeLa cells. In kind it is biochemical. Conditions: 300 nM [Glycerol-1,3-3H]-oleyl glycerol, one hour. The source says: MGL is the predominant hydrolase in HeLa cells/cell homogenates.
On to `Cc1cnc2c(C(=O)N3CCc4c(nn(C)c4-c4cc(F)c(F)c(F)c4)[C@@H]3C)cccc2n1` [Example 474, [(7S)-2,7-Dimethyl-3-(3,4,5-trifluorophenyl)-5,7-dihydro-4H-pyrazolo[3,4-c]pyridin-6-yl]-(2-methylquinoxalin-5-yl)methanone], for which the half-inhibitory concentration (IC50) (as a rule, the point on the concentration scale where inhibition reaches its midpoint) came out at 85.3 nM. Same read-out and setting: to `C[C@H]1c2nn(C)c(-c3cc(F)c(F)c(F)c3)c2CCN1C(=O)c1cnc(-c2ccccn2)n1C` [Example 602, [(7S)-2,7-Dimethyl-3-(3,4,5-trifluorophenyl)-5,7-dihydro-4H-pyrazolo[3,4-c]pyridin-6-yl]-[3-methyl-2-(2-pyridyl)imidazol-4-yl]methanone] belongs 460 nM; to `C[C@H]1c2nn(C)c(-c3cc(F)c(F)c(F)c3)c2CCN1C(=O)c1ncnc2c(F)cccc12` [Example 481, [(7S)-2,7-Dimethyl-3-(3,4,5-trifluorophenyl)-5,7-dihydro-4H-pyrazolo[3,4-c]pyridin-6-yl]-(8-fluoroquinazolin-4-yl)methanone], 5.2 nM; to `C[C@H]1c2nn(C)c(-c3cc(F)c(F)c(F)c3)c2CCN1C(=O)c1cnn(C)c1C1(F)CC1` [Example 335, [(7S)-2,7-Dimethyl-3-(3,4,5-trifluorophenyl)-5,7-dihydro-4H-pyrazolo[3,4-c]pyridin-6-yl]-[5-(1-fluorocyclopropyl)-1-methyl-pyrazol-4-yl]methanone], 32.1 nM.

Staying with this experiment, now noted: 300 nM [Glycerol-1,3-3H]-oleyl glycerol, one hour incubation.
Regarding `C[C@H]1c2nn(C)c(-c3cc(F)c(F)c(F)c3)c2CCN1C(=O)c1ccc2nccnc2c1` [Example 242, (S)-(2,7-Dimethyl-3-(3,4,5-trifluorophenyl)-2,4,5,7-tetrahydro-6H-pyrazolo[3,4-c]pyridin-6-yl)(quinoxalin-6-yl)methanone], half-maximal inhibition (IC50) required 22.3 nM. As for `C[C@H]1c2nn(C)c(-c3cc(F)c(F)c(F)c3)c2CCN1C(=O)c1nccc2c1ccn2C` [Example 217, (S)-(2,7-Dimethyl-3-(3,4,5-trifluorophenyl)-2,4,5,7-tetrahydro-6H-pyrazolo[3,4-c]pyridin-6-yl)(1-methyl-1H-pyrrolo[3,2-c]pyridin-4-yl)methanone], it took 5.07 nM to reach half-maximal inhibition (IC50).

For the compound `Cc1cc(F)cc(-c2c3c(nn2C)[C@H](C)N(C(=O)c2cnn(C)c2C)CC3)c1` [Example 327, (1,5-Dimethylpyrazol-4-yl)-[(7S)-3-(3-fluoro-5-methyl-phenyl)-2,7-dimethyl-5,7-dihydro-4H-pyrazolo[3,4-c]pyridin-6-yl]methanone], half-maximal inhibition (IC50) required 55.3 nM. As to `CC1c2nn(C)c(-c3cccc(Cl)c3)c2CCN1C(=O)c1ccc2nccnc2c1` (racemic) [Example 132, (3-(3-Chlorophenyl)-2,7-dimethyl-2,4,5,7-tetrahydro-6H-pyrazolo[3,4-c]pyridin-6-yl)(quinoxalin-6-yl)methanone], half-maximal inhibition (IC50) was put at 18.4 nM. This IC50 is about 3-fold lower than that of the compound before.

As to `Cn1nc2c(c1-c1ccccc1)CCN(C(=O)c1c[nH]c3ccncc13)C2` [Example 83, (2-Methyl-3-phenyl-2,4,5,7-tetrahydro-6H-pyrazolo[3,4-c]pyridin-6-yl)(1H-pyrrolo[3,2-c]pyridin-3-yl)methanone], half-maximal inhibition (IC50) was put at 1500 nM.

In the case of `C[C@H]1c2nn(C)c(-c3cc(F)c(F)c(F)c3)c2CCN1C(=O)c1cccc2cn[nH]c12` [Example 208, (S)-(2,7-Dimethyl-3-(3,4,5-trifluorophenyl)-2,4,5,7-tetrahydro-6H-pyrazolo[3,4-c]pyridin-6-yl)(1H-indazol-7-yl)methanone], the half-inhibitory concentration (IC50) amounted to 34.2 nM. `C[C@H]1c2nn(C)c(-c3cc(F)c(F)c(F)c3)c2CCN1C(=O)c1ccc(-n2ccnc2)cc1` [Example 267, [(7S)-2,7-Dimethyl-3-(3,4,5-trifluorophenyl)-5,7-dihydro-4H-pyrazolo[3,4-c]pyridin-6-yl]-(4-imidazol-1-ylphenyl)methanone] displayed an IC50 of 576 nM. In turn, `C[C@@H]1c2nn(C)c(-c3cc(F)c(F)c(F)c3)c2CCN1C(=O)c1ccc2ncccc2c1` [Example 235, (R)-(2,7-Dimethyl-3-(3,4,5-trifluorophenyl)-2,4,5,7-tetrahydro-6H-pyrazolo[3,4-c]pyridin-6-yl)(quinolin-6-yl)methanone] showed a half-inhibitory concentration (IC50) of 3660 nM.
